Experimental data: US20110172296A1, “MODULATION OF TRANSFORMING GROWTH FACTOR-BETA 1 EXPRESSION” (priority 2010, published 2011)
Where “and” joins values, the source holds several entries; their conditions need not be identical. Identical values can stand only once. In the oligonucleotide strings, read from the 5' end, every base follows the letter of its sugar. An asterisk marks phosphorothioate; unmarked linkages are phosphodiester. Other units and linkages are bracketed, terminal groups are in braces. A string of capitals states the bases alone. e = 2'-O-(2-methoxyethyl) (MOE); [5mC] = 5-methylcytosine; d = 2'-deoxy (DNA)

Tested on: human TGF-beta1 mRNA
Assay: Antisense inhibition of human TGF-beta1 mRNA in HuVEC cells, single 10 nM dose, Lipofectamine 2000 (Example 2)
Assay type: cell-based
Conditions: for % inhibition: 10 nM oligonucleotide, HuVEC, relative to untreated control cells; for inhibition of a TGF-beta1 mRNA: threshold lists of Oligo IDs, 10 nM
Description: Antisense oligonucleotides targeted to a TGF-beta1 nucleic acid were tested for their effects on TGF-beta1 mRNA in vitro. Cultured HuVEC cells at a density of 5,000 cells per well were transfected using Lipofectamine™ 2000 reagent with 10 nM antisense oligonucleotide for 4 hours. After a recovery period of approximately 24 hours, RNA was isolated from the cells and TGF-beta1 mRNA levels were measured by quantitative real-time PCR. TGF-beta1 mRNA levels were adjusted according to total RNA content, as measured by RIBOGREEN®. Results are presented as percent inhibition of TGF-beta1, relative to untreated control cells.
The chimeric antisense oligonucleotides in Tables 1 and 2 were designed as 2-13-5 MOE gapmers. Antisense molecules with this motif targeting TGF-beta1 are unique, and represent a novel chemical structure for an ASO directed against this target. The gapmers are 20 nucleotides in length, wherein the central gap segments are comprised of thirteen 2′-deoxynucleotides and are flanked on the 5′ side by wings comprising two nucleotides each and on the 3′ side by wings comprising five nucleotides each. Each nucleotide in the 5′ wing segment and each nucleotide in the 3′ wing segment has a 2′-MOE modification. The internucleoside linkages throughout each gapmer are phosphorothioate (P═S) linkages. All cytosine residues throughout each gapmer are 5-methylcytosines. “Target start site” indicates the 5′-most nucleotide to which the gapmer is targeted. “Target stop site” indicates the 3′-most nucleotide to which the gapmer is targeted. Each gapmer listed in Table 1 is targeted to SEQ ID NO: 1 (GENBANK Accession No. NM_000660.3). Each gapmer listed in Table 2 is targeted to SEQ ID NO: 2 (GENBANK Accession No. NT 011109.15 truncated from 14103000 to […]).

[1] = gapmers targeted to SEQ ID NO: 2
[2] = gapmers targeted to SEQ ID NO: 1

Substance | % inhibition [1] [%] | inhibition of a TGF-beta1 mRNA | % inhibition [2] [%]
414066 (antisense eG*eT*dG*dG*dA*d[5mC]*d[5mC]*dT*dT*dG*dT*dA*dA*d[5mC]*d[5mC]*eA*eG*e[5mC]*e[5mC]*eG) [compound 414066] | 80 | 60% and 65% and 70% and 75% and 80% | –
414012 (antisense eG*eG*d[5mC]*dG*d[5mC]*dG*dA*dT*d[5mC]*dT*dG*dG*dT*dA*d[5mC]*e[5mC]*eA*eG*eA*eA) [compound 414012] | – | 60% and 65% and 70% and 75% and 80% and 85% | 87
414002 (antisense eG*eG*dT*dG*dG*dG*dT*dG*dG*dT*d[5mC]*dT*dT*dG*dA*eA*eT*eA*eG*eG) [compound 414002] | – | 60% and 65% and 70% and 75% and 80% | 80
414044 (antisense eA*eT*d[5mC]*dT*dA*dA*d[5mC]*dT*dA*d[5mC]*dA*dG*dT*dA*dG*eT*eG*eT*eT*e[5mC]) [compound 414044] | – | – | 31
414109 (antisense eG*eG*d[5mC]*d[5mC]*dA*dA*dT*dT*dT*d[5mC]*d[5mC]*dA*dT*dT*dG*e[5mC]*eA*eT*e[5mC]*eT) [compound 414109] | 80 | 60% and 65% and 70% and 75% and 80% | –
414023 (antisense eT*e[5mC]*dG*dG*dG*d[5mC]*dT*d[5mC]*d[5mC]*dG*dG*dT*dT*d[5mC]*dT*eG*e[5mC]*eA*e[5mC]*eT) [compound 414023] | – | 60% and 65% and 70% and 75% | 78
414051 (antisense eG*eT*d[5mC]*dA*dG*dT*dG*dT*dT*dA*dA*dA*dG*dG*dA*eA*e[5mC]*e[5mC]*eT*e[5mC]) [compound 414051] | 36 | – | –
414073 (antisense e[5mC]*eT*dT*d[5mC]*d[5mC]*d[5mC]*d[5mC]*dA*dA*dA*d[5mC]*dA*dG*dG*d[5mC]*eT*eT*e[5mC]*e[5mC]*eA) [compound 414073] | 65 | 60% and 65% | –
414016 (antisense eA*eA*d[5mC]*d[5mC]*dT*dA*dG*dA*dT*dG*dG*dG*d[5mC]*dG*d[5mC]*eG*eA*eT*e[5mC]*eT) [compound 414016] | – | 60% and 65% and 70% and 75% | 78
414010 (antisense e[5mC]*eG*dA*dT*d[5mC]*dT*dG*dG*dT*dA*d[5mC]*d[5mC]*dA*dG*dA*eA*eG*eG*eT*eG) [compound 414010] | – | 60% and 65% and 70% and 75% and 80% and 85% | 88
414039 (antisense eG*e[5mC]*dA*d[5mC]*dG*dG*dG*dT*dG*dT*d[5mC]*d[5mC]*dT*dT*dA*eA*eA*eT*eA*e[5mC]) [compound 414039] | – | 60% and 65% and 70% and 75% and 80% | 83
414069 (antisense e[5mC]*eT*dA*dT*dG*dA*dG*dT*dT*dA*dA*d[5mC]*dA*dT*dT*e[5mC]*e[5mC]*e[5mC]*eT*e[5mC]) [compound 414069] | 62 | 60% | –
414031 (antisense eA*eT*dG*dT*d[5mC]*d[5mC]*dA*d[5mC]*dT*dT*dG*d[5mC]*dA*dG*dT*eG*eT*eG*eT*eT) [compound 414031] | – | 60% and 65% | 66
414119 (antisense eT*eG*dT*dG*d[5mC]*dA*dA*d[5mC]*dA*dA*dA*dT*dG*dT*dT*eT*eA*eT*eT*eG) [compound 414119] | 43 | – | –
414025 (antisense eA*eG*dG*d[5mC]*dT*d[5mC]*dG*dG*dG*d[5mC]*dT*d[5mC]*d[5mC]*dG*dG*eT*eT*e[5mC]*eT*eG) [compound 414025] | – | 60% and 65% and 70% and 75% | 79
414027 (antisense eG*eG*d[5mC]*d[5mC]*dT*d[5mC]*dA*dG*dG*d[5mC]*dT*d[5mC]*dG*dG*dG*e[5mC]*eT*e[5mC]*e[5mC]*eG) [compound 414027] | – | 60% and 65% and 70% and 75% and 80% | 84
414077 (antisense eT*e[5mC]*d[5mC]*dA*dG*dG*d[5mC]*d[5mC]*dT*dT*dT*dG*d[5mC]*dA*d[5mC]*eA*eG*eG*e[5mC]*eT) [compound 414077] | 71 | 60% and 65% and 70% | –
414108 (antisense e[5mC]*eA*d[5mC]*dA*dT*dG*d[5mC]*dA*dA*dT*d[5mC]*d[5mC]*dA*d[5mC]*d[5mC]*eG*eT*eG*eT*eT) [compound 414108] | 61 | 60% | –

Substance | % inhibition [1] [%] | inhibition of a TGF-beta1 mRNA | % inhibition [2] [%]
414052 (antisense eA*e[5mC]*dA*d[5mC]*dA*dT*dG*dT*dG*d[5mC]*dA*dT*dT*dT*dG*eT*eT*eG*eG*eG) [compound 414052] | 52 | – | –
414116 (antisense e[5mC]*eT*dG*dG*dA*dT*dG*dA*dG*dA*dG*dT*dT*dT*dA*e[5mC]*eG*eG*eG*e[5mC]) [compound 414116] | 83 | 60% and 65% and 70% and 75% and 80% | –
414009 (antisense eA*eT*d[5mC]*dT*dG*dG*dT*dA*d[5mC]*d[5mC]*dA*dG*dA*dA*dG*eG*eT*eG*eG*eG) [compound 414009] | – | 60% and 65% and 70% and 75% and 80% | 80
414072 (antisense eG*e[5mC]*d[5mC]*dG*dA*dA*dG*dG*dT*dG*dT*dT*dT*dT*d[5mC]*eT*eT*eG*e[5mC]*e[5mC]) [compound 414072] | 48 | – | –
414018 (antisense eA*eA*dA*dT*dA*dA*d[5mC]*d[5mC]*dT*dA*dG*dA*dT*dG*dG*eG*e[5mC]*eG*e[5mC]*eG) [compound 414018] | – | 60% and 65% and 70% and 75% and 80% | 82
414004 (antisense eA*eG*dA*dA*dG*dG*dT*dG*dG*dG*dT*dG*dG*dT*d[5mC]*eT*eT*eG*eA*eA) [compound 414004] | – | 60% and 65% and 70% | 70
414011 (antisense e[5mC]*eG*d[5mC]*dG*dA*dT*d[5mC]*dT*dG*dG*dT*dA*d[5mC]*d[5mC]*dA*eG*eA*eA*eG*eG) [compound 414011] | – | 60% and 65% and 70% and 75% and 80% and 85% | 85
413994 (antisense e[5mC]*eG*dT*d[5mC]*d[5mC]*d[5mC]*d[5mC]*dG*dG*d[5mC]*dG*dG*d[5mC]*dA*dA*eA*eG*eG*eG*eA) [compound 413994] | – | 60% and 65% | 67
414090 (antisense eG*eA*dT*dT*d[5mC]*d[5mC]*dA*dA*dT*dG*dT*dT*dT*d[5mC]*dA*eG*e[5mC]*eT*eT*eT) [compound 414090] | 80 | 60% and 65% and 70% and 75% and 80% | –
414103 (antisense eA*eT*dT*d[5mC]*dA*dA*dG*dT*dA*dA*dG*dG*dT*d[5mC]*dT*eA*e[5mC]*eA*e[5mC]*eA) [compound 414103] | 58 | – | –
414050 (antisense eT*eT*d[5mC]*d[5mC]*d[5mC]*d[5mC]*dA*dA*dG*dG*d[5mC]*dT*d[5mC]*dT*dG*eA*eA*e[5mC]*e[5mC]*eA) [compound 414050] | 82 | 60% and 65% and 70% and 75% and 80% | –
414121 (antisense eG*e[5mC]*dA*dA*dT*dG*d[5mC]*dT*dT*dA*dA*dG*dA*d[5mC]*dA*eA*eG*e[5mC]*e[5mC]*eT) [compound 414121] | 62 | 60% | –
414048 (antisense eG*eG*dT*dT*dT*d[5mC]*d[5mC]*d[5mC]*d[5mC]*dA*dG*d[5mC]*d[5mC]*dA*d[5mC]*e[5mC]*e[5mC]*eT*eG*eA) [compound 414048] | 61 | 60% | –
414082 (antisense eG*eA*dG*dA*dG*dG*dG*dA*dA*dG*d[5mC]*d[5mC]*dA*dG*dT*e[5mC]*eT*eG*eA*eG) [compound 414082] | 19 | – | –
414049 (antisense e[5mC]*eT*dG*dA*dG*dT*dG*dG*dG*dA*dG*d[5mC]*d[5mC]*d[5mC]*d[5mC]*eG*e[5mC]*e[5mC]*e[5mC]*eG) [compound 414049] | 53 | – | –
414076 (antisense eG*eT*dT*d[5mC]*d[5mC]*d[5mC]*d[5mC]*dA*dG*d[5mC]*dT*dA*d[5mC]*d[5mC]*dT*eA*eG*e[5mC]*e[5mC]*eA) [compound 414076] | 57 | – | –
414019 (antisense eG*eG*dA*dA*dA*dT*dA*dA*d[5mC]*d[5mC]*dT*dA*dG*dA*dT*eG*eG*eG*e[5mC]*eG) [compound 414019] | – | 60% and 65% and 70% and 75% | 78
413992 (antisense e[5mC]*e[5mC]*d[5mC]*dG*dG*d[5mC]*dG*dG*d[5mC]*dA*dA*dA*dG*dG*dG*eA*eG*eG*e[5mC]*eG) [compound 413992] | – | 60% | 60
